{
  "source": "patent US8455523B2",
  "about": "“Compositions and methods for treating hyperlipidemias” (The Research Foundation of State University of New York, priority 2010, dated 2013)",
  "key": {"[1]": {"tested_on": "C57Bl/6J mice fed western diet", "test": "MTP inhibitor CP-346086 with or without lovastatin or WY14643 in western diet fed mice: plasma/hepatic lipids, AST/ALT", "type": "in vivo", "conditions": "WD 8 weeks", "method": "FIGS. 4a and 4b. Effect of MTP inhibitor (CP-34086) on plasma lipids and lipoproteins in C57Bl/6J mice fed western diet ad libitum for 8 weeks. MTP inhibitor solubilzed in DMSO was administered orally for one week (15 mg/kg/day) along with either DMSO (MTPi), lovastatin (50 mg/kg/day), or WY14643 (10 mg/kg/day). Control mice were gavaged with DMSO only.\nFIGS. 5a and 5b. Liver samples from FIG. 4 were used to measure MTP activity (A) and hepatic lipids (B-E). Stars on MPTi group represent comparison between Control and MTPi groups.\nControl group (n=4) received daily oral gavage of DMSO alone. MTPi group received 15 mg/kg/day MTP inhibitor CP-346086 (MTPi) once daily. […] Plasma total and HDL cholesterol were unaffected by MTPi. Combined treatment of MTPi and lovastatin decreased plasma LDL cholesterol. […] Next, we measured changes in plasma hepatic enzymes (FIGS. 4G-H). […] These studies indicate that apart from lowering plasma triglyceride, MTPi enhances plasma AST/ALT and these increases can be avoided by the co-administration of lovastatin."}, "[2]": {"tested_on": "Reversa mice", "method": "FIG. 11. Reversa animals were injected with plpC every other day for one week. Lovastatin, T-090317 and WY14643 were administered by oral gavage everyday for 30 days after the first injection. Animals were sacrificed on day 30 and plasma and livers were harvested and analyzed. * represent comparison to PBS injected animals and # represent comparisons to plpC control.\nAnimals: Mttp^tm2Sgy LdIr^tm1Her Apob^tm2Sgy Tg(Mx1-cre)1Cgn/J mice (Reversa) (stock number 004192) were obtained from Jackson Laboratories. Male reversa mice were used to study the effect of mttp gene deletion on plasma and tissue lipids. These animals are transgenic for apolipoprotein B, LDLR^−/− and floxed at exon 1 of the mttp locus. In addition, these mice express cre recombinase under the control of the Mx1 promoter, which is induced after intraperitoneal injection of polyinosinic polycytidylic ribonucleic acid (plpC—Sigma) in the liver, spleen and intestine. Injection of plpC activates the cre recombinase and deletes the mttp gene in the liver and intestines. Reversa mice were injected with either PBS or plpC. Mice injected with plpC were orally gavaged with DMSO (Sigma-Aldrich D8418), DMSO+Lovastatin (50 mg/kg/day) (Calbiochem 438186), DMSO+T0901317 (50 mg/kg/day) (Calbiochem 575310), or DMSO+WY14643 (10 mg/kg/day) (Calbiochem 681725). Mice injected with plpC were also injected with either PBS or Ω-3 fatty acids (SUNY Downstate Medical Center). All animals were given supplemental treatments for 30 days.\nAll animals were kept in 07:00-19:00 h lighting schedule. […] Food was withdrawn 16 h before the sacrifice of the mice. On the day of the experiment, mice were anesthetized and blood was collected from the heart. Liver was collected, washed in ice-cold PBS, cut into small pieces and used for lipid extraction, histological staining, to measure different protein activities/quantities and for mRNA analysis. Lipids were extracted from the tissue homogenates following the Bligh and Dyer method. Triglyceride (Infinity TM Triglyceride, TR22421) and total cholesterol (Infinity TM Cholesterol, TR13421) levels in the tissues were determined using commercial kits (Thermo Scientific). Free cholesterol and free fatty acid levels were measured using kits from Wako Chemicals (Germany). Esterified cholesterol was calculated by subtracting the free cholesterol from the total cholesterol.\nTo determine whether accumulation of hepatic triglyceride and free cholesterol is related to increases in plasma AST/ALT, we sought to reduce these lipids using different chemical compounds of known physiologic effects. Mice injected with plpC were orally gavaged with DMSO, DMSO+Lovastatin (50 mg/kg/day), DMSO+T0901317 (50 mg/kg/day), or DMSO+WY14643 (10 mg/kg/day). Lovastatin (Lova), an HMG-CoA reductase (HMGR) inhibitor, and T0901317 (T0), an LXR agonist, are expected to decrease hepatic free cholesterol by inhibiting endogenous cholesterol synthesis and increasing cholesterol efflux, respectively. WY14643 (WY), a PPARα agonist, increases β-oxidation of fatty acids and lowers hepatic triglycerides.\nTo evaluate the efficacy of Ω-3 FA in reducing hepatic triglyceride, plpC injected mice were treated with intraperitoneal injection of Ω-3 FA (3 mg/kg/2 day) or Ω-3 FA and Lova."}, "[3]": {"biological_target": "T1, MTP (Mus musculus, UniProt O08601)", "T1 construct": "small pieces (0.1 g) of liver and ˜1-cm segments of proximal small intestine were homogenized; from tissue; host or cells: mouse liver (C57BL/6J; Reversa mice in some experiments); supernatant of ultracentrifuged homogenate", "T1 sequence (O08601 22-894)": "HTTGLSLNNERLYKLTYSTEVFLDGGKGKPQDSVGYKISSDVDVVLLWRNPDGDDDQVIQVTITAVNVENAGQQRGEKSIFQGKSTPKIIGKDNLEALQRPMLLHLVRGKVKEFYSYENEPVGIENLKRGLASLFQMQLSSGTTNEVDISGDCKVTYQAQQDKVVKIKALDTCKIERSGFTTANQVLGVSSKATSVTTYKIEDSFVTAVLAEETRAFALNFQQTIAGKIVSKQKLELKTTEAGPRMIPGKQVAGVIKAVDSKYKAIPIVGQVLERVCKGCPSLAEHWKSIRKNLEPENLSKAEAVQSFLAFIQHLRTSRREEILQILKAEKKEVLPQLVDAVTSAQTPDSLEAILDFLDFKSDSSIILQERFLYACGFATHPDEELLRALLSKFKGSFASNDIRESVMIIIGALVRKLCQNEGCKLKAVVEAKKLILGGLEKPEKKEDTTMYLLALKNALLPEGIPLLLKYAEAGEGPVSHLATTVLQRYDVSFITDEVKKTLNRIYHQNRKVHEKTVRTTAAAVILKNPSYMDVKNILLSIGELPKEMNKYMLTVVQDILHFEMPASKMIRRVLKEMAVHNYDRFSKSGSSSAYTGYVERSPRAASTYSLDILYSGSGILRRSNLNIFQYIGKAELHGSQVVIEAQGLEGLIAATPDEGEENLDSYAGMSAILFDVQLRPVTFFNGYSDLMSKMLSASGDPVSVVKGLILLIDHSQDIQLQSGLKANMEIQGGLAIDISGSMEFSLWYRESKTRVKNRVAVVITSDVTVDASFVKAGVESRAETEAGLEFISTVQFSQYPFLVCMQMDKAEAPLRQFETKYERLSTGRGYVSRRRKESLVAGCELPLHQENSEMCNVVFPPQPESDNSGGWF", "T1 sequence (P09103 21-509 partner limits assumed)": "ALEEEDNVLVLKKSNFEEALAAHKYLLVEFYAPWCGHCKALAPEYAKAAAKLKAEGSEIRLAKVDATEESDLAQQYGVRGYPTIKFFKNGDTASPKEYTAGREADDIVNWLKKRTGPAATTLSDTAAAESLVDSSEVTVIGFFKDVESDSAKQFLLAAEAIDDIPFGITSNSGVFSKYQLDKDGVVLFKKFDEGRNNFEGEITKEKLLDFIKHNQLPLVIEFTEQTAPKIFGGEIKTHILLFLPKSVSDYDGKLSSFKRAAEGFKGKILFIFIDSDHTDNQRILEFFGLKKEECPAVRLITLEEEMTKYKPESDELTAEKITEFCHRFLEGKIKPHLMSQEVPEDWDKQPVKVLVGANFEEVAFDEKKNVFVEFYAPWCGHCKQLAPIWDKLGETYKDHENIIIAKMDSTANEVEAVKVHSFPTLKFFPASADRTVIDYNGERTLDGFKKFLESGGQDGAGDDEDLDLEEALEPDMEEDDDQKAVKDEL", "test": "Determination of MTP activity in tissues (liver homogenates of treated mice)", "type": "in vivo", "conditions": "Reversa mice, plpC vs PBS", "method": "After extensive washes with ice-cold PBS, small pieces (0.1 g) of liver and ˜1-cm segments of proximal small intestine were homogenized with 1 ml of ice-cold 1 mM Tris-HCl, pH 7.6, 1 mM EGTA, and 1 mM MgCl2 buffer in a glass homogenizer. The homogenates were centrifuged (SW55 Ti rotor, 50,000 rpm, 10° C., 1 h), and supernatants were used for MTP assay as described before (41; 42) using a kit (Chylos, Inc.)."}, "[4]": {"conditions": "CP-346086 15 mg/kg/day oral 1 week, vs control"}, "[5]": {"conditions": "MTP deficient (plpC) Reversa mice, oral 30 days"}, "[6]": {"conditions": "plpC-injected Reversa mice, Lova 50, T0 50, WY 10 mg/kg/day oral or Ω-3 FA 3 mg/kg/2 day ip, vs plpC control"}},
  "data": [
    {"molecule": "O=C(Nc1ccc2c(c1)CCN(Cc1ncn[nH]1)C2)c1ccccc1-c1ccc(C(F)(F)F)cc1", "note": "[CP-346086]", "values": [
      {"measurement": "plasma AST/ALT", "setting": "[1]; CP-346086 15 mg/kg/day 1 week ± lovastatin 50 or WY14643 10 mg/kg/day, MTPi vs control, co-drugs vs MTPi", "result": "significantly enhanced"},
      {"measurement": "Plasma total and HDL cholesterol", "setting": "[1]; [4]", "result": "unaffected"},
      {"measurement": "plasma total and LDL triglyceride, and LDL cholesterol", "setting": "[1]; [4]", "result": "significantly lower"}
    ]},
    {"molecule": "O=S(=O)(c1ccccc1)N(CC(F)(F)F)c1ccc(C(O)(C(F)(F)F)C(F)(F)F)cc1", "note": "[T0901317]", "values": [
      {"measurement": "plasma cholesterol", "setting": "[2]; [5]", "result": "no effect"},
      {"measurement": "plasma triglycerides", "setting": "[2]; [5]", "result": "no effect"},
      {"measurement": "hepatic free and total cholesterol", "setting": "[2]; [6]", "result": "significantly reduced"},
      {"measurement": "hepatic triglyceride", "setting": "[2]; [6]", "result": "no effect"}
    ]},
    {"molecule": "polyinosinic polycytidylic ribonucleic acid [plpC]", "values": [
      {"measurement": "decrease in non-HDL-cholesterol", "setting": "[2]; Reversa mice, plpC vs PBS", "result": "~40", "unit": "%"},
      {"measurement": "decrease of plasma total triglyceride and cholesterol", "setting": "[2]; Reversa mice, plpC vs PBS", "result": 50, "unit": "%"},
      {"measurement": "increase of hepatic free cholesterol", "setting": "[2]; Reversa mice, plpC vs PBS", "result": 50, "unit": "%"},
      {"measurement": "increase of hepatic triglyceride", "setting": "[2]; Reversa mice, plpC vs PBS", "result": 2, "unit": "fold"},
      {"measurement": "increase of plasma ALT and AST", "setting": "[2]; Reversa mice, plpC vs PBS", "result": "2-3 fold"},
      {"measurement": "reduction of hepatic cholesteryl esters (CE)", "setting": "[2]; Reversa mice, plpC vs PBS", "result": "~30", "unit": "%"},
      {"measurement": "reduction of hepatic MTP activity compared to controls", "setting": "[3]", "result": "~75", "unit": "%"}
    ]}
  ]
}
